Patent US20100029668A1, “NOVEL PYRIDAZINE DERIVATIVES” (SYNGENTA CROP PROTECTION, INC., priority 2006, published 2010)

Key:
[1] = tested on: Uncinula necator; experiment: Uncinula necator/Grape/Preventive (action against powdery mildew on grape); type: in vivo; settings: Erysiphe necator, 168 h, preventive spray, grape seedlings cv. Gutedel, assessed 7 days after inoculation, read-out: inhibit fungal infestation
Description: Uncinula necator/Grape/Preventive (Action Against Powdery Mildew on Grape) 5 weeks old grape seedlings cv. Gutedel are treated with the formulated test compound in a spray chamber. One day after application grape plants are inoculated by shaking plants infected with grape powdery mildew above the test plants. After an incubation period of 7 days at 24° C./22° C. and 70% r. h. under a light regime of 14/10 h (light/dark) the disease incidence is assessed.

[2] = tested on: Pyrenophora teres (Helminthosporium teres); experiment: Pyrenophora teres (Helminthosporium teres)/Barley/Preventive (action against net blotch on barley); type: in vivo; settings: 96 h, preventive spray, barley plants cv. Regina, assessed 4 days after inoculation, read-out: inhibit fungal infestation
Description: Pyrenophora teres (Helminthosporium teres)/Barley/Preventive (Action Against Net Blotch on Barley) 1-week-old barley plants cv. Regina are treated with the formulated test compound in a spray chamber. Two days after application barley plants are inoculated by spraying a spore suspension (2.6×10^4 conidia/ml) on the test plants. After an incubation period of 4 days at 20° C. and 95% r. h. the disease incidence is assessed.

[3] = tested on: Alternaria solani; experiment: Alternaria solani/Tomato/Preventive (action against Alternaria on tomato); type: in vivo; settings: 96 h, preventive spray, tomato plants cv. Roter Gnom, assessed 4 days after inoculation, read-out: inhibit fungal infestation
Description: (§1) Alternaria solani/Tomato/Preventive (Action Against Alternaria on Tomato) 4 weeks old tomato plants cv. Roter Gnom are treated with the formulated test compound in a spray chamber. Two days after application tomato plants are inoculated by spraying a spore suspension on the test plants. After an incubation period of 4 days at 22° C./18° C. and 95% r. h. in a greenhouse the disease incidence is assessed.

[4] = tested on: Botrvtis cinerea; experiment: Botrvtis cinerea/Tomato/Preventive (action against Botrytis on tomato); type: in vivo; settings: Solanum lycopersicum, 72 h, preventive spray, tomato plants cv. Roter Gnom, assessed 3 days after inoculation, read-out: inhibit fungal infestation
Description: as §1, with “Botrvtis cinerea/Tomato/Preventive (Action” for “Alternaria solani/Tomato/Preventive (Action”, “Against Botrytis” for “Against Alternaria”, “of 3” for “of 4”, “at 20°” for “at 22° C./18°”

[5] = tested on: Puccinia recondita; experiment: Puccinia recondita/Wheat/Preventive (action against brown rust on wheat); type: in vivo; settings: 264 h, preventive spray, wheat plants cv. Arina, assessed 11 days after inoculation, read-out: inhibit fungal infestation
Description: Puccinia recondita /Wheat/Preventive (Action Against Brown Rust on Wheat) 1 week old wheat plants cv. Arina are treated with the formulated test compound in a spray chamber. One day after application wheat plants are inoculated by spraying a spore suspension ([…] uredospores/ml) on the test plants. After an incubation period of 1 day at 20° C. and 95% r. h. plants are kept for 10 days 20° C./18° C. (day/night) and 60% r.h. in a greenhouse. The disease incidence is assessed 11 days after inoculation.

[6] = tested on: Maqnaporthe grisea (Pyricularia oryzae); experiment: whole plant or invertebrate; type: in vivo; settings: 144 h, read-out: inhibit fungal infestation

SMILES	melting point [°C]	inhibition at 200 ppm [1] [%]	inhibition at 200 ppm [2] [%]	inhibition at 200 ppm [3] [%]	inhibition at 200 ppm [4] [%]	inhibition at 200 ppm [5] [%]	inhibition at 200 ppm [6] [%]
CSc1ccc(-c2c(C)n[nH]c(=O)c2-c2ncc(Cl)cc2Cl)nc1 [I.u.006, 4-(3,5-dichloro-pyridin-2-yl)-6-methyl-5-(5-methylsulfanyl-pyridin-2-yl)-2H-pyridazin-3-one]	229						
CSc1ccc(-c2c(C)nnc(Cl)c2-c2ncc(Cl)cc2Cl)nc1 [I.u.008, 3-chloro-4-(3,5-dichloro-pyridin-2-yl)-6-methyl-5-(5-methylsulfanyl-pyridin-2-yl)-pyridazine]	163	≥ 80	≥ 80	≥ 80	≥ 80		
COc1nnc(C)c(-c2ccc(SC)cn2)c1-c1ncc(Cl)cc1Cl [I.u.009, 4-(3,5-dichloro-pyridin-2-yl)-3-methoxy-6-methyl-5-(5-methylsulfanyl-pyridin-2-yl)-pyridazine]	170 to 171				≥ 80	≥ 80	
CSc1ccc(-c2c(C)nnc(C)c2-c2ncc(Cl)cc2Cl)nc1 [I.u.010, 4-(3,5-dichloro-pyridin-2-yl)-3,6-dimethyl-5-(5-methylsulfanyl-pyridin-2-yl)-pyridazine]			≥ 80				≥ 80
